Test results reported in patent publication US20230150951A1, “2,5- OR 2,6-DISUBSTITUTED HYDROQUINONE DERIVATIVES WITH AT LEAST ONE CARBOXY, SULFO OR AMIDO GROUP USEFUL AS MEDICAMENTS” (OM PHARMA SA, priority 2020, published 2023).
Entries after “also recorded” stand apart in the source; their conditions may differ.

Experiments:
[1] = cited from earlier work
Stability in DMSO = format: physicochemical
[2] = tested on: bleomycin induced pulmonary fibrosis; experiment: Bleomycin induced pulmonary fibrosis, 21 days; format: in vivo, mice; details: day 21; pirfenidone 100 mg/kg, IVc-059a 15 mg/kg
Experimental: A total of 40 male Balb/c mice aged 8-10 weeks were used for the study.
Mice were anesthetized using an IP injection of xylazine and ketamine. Once an appropriate plane of anaesthesia was achieved, animals had 1.0 U/kg bleomycin sulphate instilled via intratracheal route. The total volume of liquid was 50 μL.
Dosing of IV and positive control (pirfenidone) started 24 hours after bleomycin instillation.
Drug solution was formulated immediately prior to dosing. For a dose of 15 mg/kg (enough for 12, 30 g mice) 4.5 mg of compound was weighed out. 75 μl (5%) DMSO added and mixed until drug is in solution. 150 μl (10%) solutol added and vortexed gently, 150 μl (10%) PEG400 added and vortexed gently. 1000 μl PBS (pH7) was added and matrix was measured to ensure pH 7.0 was maintained. Remaining PBS (to a total of 1500 μl) was added. Compound remained in solution. […]
Ashcroft score: Lungs from each animal were FFPE, sectioned and stained with H&E according to an in-house protocol. […] Each lung was scored using the Ashcroft grading system to measure degree of inflammation/fibrosis as per Hubner et al., 2008. […]
An entire lung from each animal was formalin fixed and stored in 70% ethanol. […] Percent area covered by trichrome staining was quantified using Qupath and ImageJ software.

[3] = tested on: acute pancreatitis murine model; experiment: Caerulein-induced acute pancreatitis murine model; format: in vivo, Balb/c mice; design: Serum IL33 level / Serum TGF-B level: unit not given here
Experimental: Therapeutic efficacy of the compounds according to the present invention was assessed on an acute pancreatitis murine model. Tissue samples were obtained to allow post in-life analysis of pancreatitis parameters. Plasma samples were also obtained to assess animal exposure levels after administration of the compounds.
Animals: A total of 70 female Balb/c mice aged 8-10 weeks weighing approximately 20-25 g were used for the study (Charles River). After 7 days acclimatization, they were allocated into the different groups. […] Cages, bedding, and water were sanitized before use. Animals were provided with Corn-o-cobs enrichment bedding to provide environment enrichment and nesting material. […] The animal holding room were maintained as follows—room temperature at 20-24° C., humidity at 30-70% and a 12 h light/dark cycle used. Although animals used in this study were immuno-competent, preparation of dosing solutions and dosing/weighing of animals were carried out in a sterile biosafety cabinet.
Final formulation was in 5% DMSO, 10% Solutol, 10% PEG400, 75% 0.9% Saline and pH adjusted to 7 with 0.5M NaOH solution.
Final formulation is in 5% DMSO, 10% Solutol, 10% PEG400, 75% 0.9% Saline and pH adjusted to 7 with 0.5M NaOH solution. For per os (PO) dosing IVc-059a is formulated in water. Drug solutions were formulated on the day of dosing.
The purposes of this study were to assess efficacy compounds in an acute pancreatitis model (14 days), generate tissue samples to allow post in-life analysis of pancreatitis parameters and generate four plasma samples to assess animal exposure levels after first and last injection obtained from blood samples taken 1 h and 24 h after first and last injection.
Study Design: On the first study day animals were randomly be assigned to treatment groups, ensuring an equal spread of bodyweight. Mice (except negative control group) were treated with test compounds were given 5 minutes prior to caerulein dosing, followed by injection with caerulein at […] via intraperitoneal route (IP) daily during the study.
Treatment of test compounds were given 5 minutes prior to caerulein dosing.
Sampling and post in-life analyses: at times indicated above a whole blood sample (60 μl) were taken from the lateral tail vein into tubes coated with K2-EDTA. Plasma samples were prepared and stored frozen at −20° C. Plasma samples were sent to client bioanalysis provider Eurofins (FR) for quantification of compound.
Terminal Sampling: Prior to termination animals were weighed. Terminal study animals were culled via CO2 inhalation. A terminal blood sample was taken via cardiac puncture and plasma prepared. Lipase and Amylase activities were measured via ELISA using commercially available ELISA kits. Remaining plasma was stored for future cytokine analyses. Pancreas tissue was resected and weighed, and a section ([…]) snap frozen and analysed for quantification of compound in pancreas sample. A section ([…]) was processed for measurement of MPO activity, IL-33 and TGF-B levels via ELISA. The remainder was fixed in formalin and embedded in paraffin wax. H&E staining was carried out and section assessed using Schmidts standard scoring system, examining: edema, inflammatory infiltration, parenchymal necrosis, haemorrhage. Massons' Trichrome staining was carried out and area covered by fibrotic tissue quantified digitally using QuPath software. Terminal serum samples was used to assess blood chemistry using an IdeXX CHEM15 and LYTE4 clip (4 animals per treatment group).
Histopathology assessment of pancreatic injury based on 4 criteria: Oedema, Inflammatory infiltration, Parenchymal necrosis, Haemorrhage and scored as described below.
Schmidt score is the evaluation of the efficacy of the compounds based on the four histopathology criteria as described in the table below.

[4] = 1st experiment, caerulein induced, 15 mg/kg IV, Ib-010a and IVc-059a 150 mg/kg PO, Pirfenidone 40 mg/kg IV
[5] = 1st experiment, terminal pancreatic tissue, 15 mg/kg IV, Ib-010a and IVc-059a 150 mg/kg PO, Pirfenidone 40 mg/kg IV
[6] = 1st experiment, terminal serum, 15 mg/kg IV, Ib-010a and IVc-059a 150 mg/kg PO, Pirfenidone 40 mg/kg IV
[7] = second experiment, IV, 15 mg/kg, Pirfenidone 100 mg/kg

SMILES: CNC(=O)c1cccc(C(=O)NC)c1O [bis (N-methyl)amide of 2-hydroxyisophthalic acid]
- pKa of phenol [1]: 6.81

SMILES: O=C(O)c1cc(O)c(-c2nc3cccc(C(=O)O)c3[nH]2)cc1O [Id-030a, 2-(4-Carboxy-2,5-dihydroxyphenyl)-1H-benzo[d]imidazole-4-carboxylic acid]
- Stability in DMSO (in words) (Stability in DMSO): unstable in DMSO

SMILES: Cc1ccc(=O)n(-c2ccccc2)c1 [pirfenidone, reference compound]
- Onset of fibrosis in mouse lung (Ashcroft score) [2]: reduced the onset of fibrosis in mouse lung
- Acinar cell necrosis (group mean score) [3, 4]: 0.8
- Haemorrhage (group mean score) [3, 4]: 0.4
- Interstitial oedema (group mean score) [3, 4]: 1.0
- Leukocyte infiltration (group mean score) [3, 4]: 2.0
- Mean terminal BW (% of initial) [3, 4]: 97.6 % of initial
- Mean terminal pancreas weight [3, 4]: 0.136 g
- Pancreas histopathology observations (H&E) [3, 4]: Mild oedema observed; also recorded: Mild haemorrhage observed; also recorded: Mild acinar cell necrosis observed; also recorded: Leukocyte infiltration observed; also recorded: Normal islet morphology observed in areas
- Schmidt Score (H&E) ([3]; 1st experiment, caerulein induced, 15 mg/kg IV, Ib-010a and IVc-059a 150 mg/kg PO, Pirfenidone 40 mg/kg IV, induced + vehicle = 10, non-induced = 0): 4.1
- Pancreas IL33 level [3, 5]: 78 ± 23
- Pancreas MPO activity [3, 5]: 1.26
- Pancreas TGF-B level [3, 5]: 289 ± 170
- Serum IL33 level [3, 6]: 39.16
- Serum TGF-B level [3, 6]: 5.5
- Serum amylase level [3, 6]: 37.71
- Serum lipase level [3, 6]: 7.65
- Amylase [3, 7]: 45.171 mU/mL
- IL-33 [3, 7]: 226 ± 151 ng/mL
- Lipase [3, 7]: 4.541 mU/mL
- MPO [3, 7]: 1.68 ± 0.44 U/mg
- Schmidt Score [3, 7]: 8 ± 1
- TGF-B [3, 7]: 578 ± 230 ng/mL
- Trichome staining (Fibrosis % area) [3, 7]: 1.277 ± 0.888 % area
- Lipase activity in serum ([3]; second experiment, pirfenidone 100 mg/kg, compounds 15 mg/k, vs vehicle treated animals): significantly lower than that in vehicle treated animals
- MPO activity in pancreatic tissue ([3]; second experiment, vs induced vehicle treated controls): significantly lower than induced vehicle treated controls
